# System: NF-κB subunits p65 and p50 in BV-2 cells
# Experiment: NF-κB p65/p50 nuclear translocation in LPS-stimulated BV-2 cells (Western, immunofluorescence)
# Format: cell-based, murine
# Description: Nuclear and cytoplasmic fractions of BV-2 cells were prepared at several time points after treatment (0-120 minutes) using the nuclear extract kit from Active Motif (Carlsbad, Calif.). Briefly, cells were washed, collected in ice-cold PBS in the presence of phosphatase inhibitors, and centrifuged at 300×g for 5 min at 4° C. Cell pellets were resuspended in hypotonic buffer, treated with detergent, and centrifuged at 14,000×g for 30 sec at 4° C. After collection of the cytoplasmic fraction, nuclei were solubilized for 30 min in lysis buffer containing protease inhibitors. Lysates were centrifuged at 14,000×g for 30 min at 4° C. and supernatants were collected for NF-κB studies. To prepare whole cell lysates for phospho-Akt and phospho-IKK studies, cells were washed in ice-cold PBS and lysed in 20 mM Tris-HCl, pH 7.5, 150 mM NaCl, 1 mM Na2EDTA, 1 mM EGTA, 1% Triton, 2.5 mM sodium pyrophosphate, 1 mM β-glycerophosphate, 1 mM orthovanadate, 1 μg/ml leupeptin and 1 mM PMSF. Lysates were sonicated for 5 seconds, centrifuged at 14,000×g for 10 min at 4° C. and supernatants were collected for phospho-Akt and phospho-IKK studies. All protein concentrations were determined using the Bradford protein assay.
# Western blot analysis. Protein (20 μg per lane) was fractionated using 12% SDS-PAGE and electrophoretically transferred to PVDF membranes (Bio-Rad, Hercules, Calif.). For phospho-Akt/Akt and phospho-IKK/IKK studies, membranes were probed with anti phospho-Ser473 Akt antibody or anti-phospho-IKK antibody (1:1000, Cell signaling, Beverly, Mass.) and anti-Akt and anti-IKK antibodies (1:1000; Cell Signaling). For NF-κB nuclear translocation studies, membranes were probed with anti-NF-κB p105/p50 antibody (1:5000, Abcom, Cambridge, Mass.) or anti-NF-κB p65 antibody (1:300, Santa Cruz Biotechnology). Loading controls included anti-actin antibody (1:10,000, Santa Cruz Biotechnology, Inc. Santa Cruz, Calif.) for cytosolic fractions and anti-lamin B1 antibody (1:10,000, Abcom, Cambridge, Mass.) for nuclear fractions. Immunoreactivity was detected using either sheep anti-rabbit or sheep anti-mouse HRP-conjugated secondary antibody (Amersham Biosciences, Arlington Heights, Ill.), followed by enhanced chemiluminescence (Pierce). Autoradiographic signals were quantified using NIH Image. Experiments were repeated in triplicate.
# BV-2 cells were seeded on poly-L-Lysine coated glass coverslips and were maintained in culture for at least 24 hours before treatment with LPS+/−AE1-329. After one hour of treatment, cells were fixed with 4% paraformaldehyde and processed for immunocytochemistry using established protocols. NF-κB cellular localization was detected using rabbit anti-NF-κB p65 antibody (1:200, Santa Cruz Biotechnology) and Cy3-conjugated donkey anti-rabbit secondary antibody (Jackson ImmunoResearch Laboratories, West Grove, Pa.). Nuclei were visualized using Hoechst 33258 dye (MP Biomedicals, Solon, Ohio). Images were acquired using a Nikon Eclipse E600 microscope (Nikon Instruments, Melville, N.Y.) and a Hamamatsu Orca-ER digital camera (Hamamatsu Photonics, Bridgewater, N.J.). For quantification of nuclear NF-κB p65 levels, images were analyzed using the measurements module of Volocity 4.3.2 image analysis software (Improvision Inc., Waltham, Mass.). […] For data quantification, each data point represented the average NF-κB p65 signal from the nuclei in one field of view (>100 cells). […]
smiles,measurement,setting,value
COCc1ccccc1CC[C@H](O)/C=C/[C@H]1[C@H](O)CC(=O)[C@@H]1SCCCSCC(=O)O [AE1-329],nuclear p65 immunofluorescent signal,"BV-2 cells, 60 minutes after LPS 100 ng/ml, AE1-329 100 nM",significantly attenuated
same,LPS-induced nuclear translocation of NF-κB subunits p65 and p50 (Western),"BV-2 cells, LPS 100 ng/ml, AE1-329 100 nM, vs vehicle",reduced levels of NF-κB nuclear translocation
same,"time of maximal attenuation of nuclear translocation, NF-κB p65","BV-2 cells, LPS + AE1-329",60 min
same,"time of maximal attenuation of nuclear translocation, p50","BV-2 cells, LPS + AE1-329",120 min
same,cytoplasmic levels of p65 and p50,"LPS-treated BV-2 cells, AE1-329 vs vehicle",increased

# Source: patent US20120283293A1, “Methods of neuroprotection involving Prostaglandin E2 EP4 (PGE2 EP4) receptor activation” (The Board of Trustees of the Leland Stanford Junior …, priority 2011, published 2012)
